{"source": "patent US11447577B2", "about": "“Cyclodextrin based polymers, methods, compositions and applications thereof” (priority 2016, dated 2022)", "key": {"in vivo": {"test": "in vivo", "design": "species or system mice", "conditions": "mouse, sc, 500 mg/kg", "method": "The effects of various cyclodextrin polymers were tested on WT mice. WT mice were injected with a single sub-cutaneous dose of 500 mg/kg of HPbCD, Polymer A, or Polymer B. PK measurements were taken every 2 hours via HPLC-UV measurements of mouse plasma. FIG. 28 presents the half-life results of this experiment. […] The recovery was 90% from plasma and tissues."}, "Npc1^nih mice": {"tested_on": "Npc1^nih mice", "test": "Efficacy study in Npc1^nih mouse model (body weight, balance beam test, survival)", "assay_type": "in vivo", "conditions": "HPβCD 4 mg/g s.c. weekly starting at PN7", "method": "Npc1^nih mouse model is a model for an early onset and faster progressing human diseases. This mouse model arises from the insertion of an active retrotransposon, a spontaneous mutation, which generated a frameshift resulting in a “knock out” of Npc1 gene: small amount of truncated Npc1 mRNA and no protein.\nNpc1^nih mice received Polymer B (0.8 mg/g body weight) via injection (s.c.) at the scruff of the neck at PN4, PN7, and PN14. Another group of Npc1^nih mice received HPβCD (4 mg/g body weight; obtained from Sigma-Aldrich and used as received, CAS: 128446-35-5) via injected (s.c.) weekly starting at PN7. Control mice received PBS (sham). Mean volume of the injection was between 50 to 100 μL according to mice size. The body weight, motor behaviour, and survival rate of each group of mice were analyzed.\nExample 5 was repeated for Npc1^nih mice receiving Polymer A (0.4 mg/g body weight) via injected (s.c.) weekly starting at PN7 and ending at PN70. The body weight and motor behaviours were analyzed. The results of these analyses were compared to the control mice results from Example 5. […]\nThe effects of various cyclodextrin polymers, doses, and injection schedules were tested on Npc1^nih mice. […] The body weight, motor behaviour, and survival rate of each group of mice were analyzed."}, "nmf164 mice": {"tested_on": "nmf164 mice", "conditions": "4000 mg/kg; cited from earlier work"}}, "data": [{"compound": "CC(O)COC[C@H]1O[C@@H]2O[C@H]3[C@H](O)[C@@H](O)[C@@H](O[C@H]4[C@H](O)[C@@H](O)[C@@H](O[C@H]5[C@H](O)[C@@H](O)[C@@H](O[C@H]6[C@H](O)[C@@H](O)[C@@H](O[C@H]7[C@H](O)[C@@H](O)[C@@H](O[C@H]8[C@H](O)[C@@H](O)[C@@H](O[C@H]1[C@H](O)[C@H]2O)O[C@@H]8COCC(C)O)O[C@@H]7COCC(C)O)O[C@@H]6COCC(C)O)O[C@@H]5COCC(C)O)O[C@@H]4COCC(C)O)O[C@@H]3COCC(C)O", "note": "(stereo partly drawn) [HPβCD, Hydroxypropyl-β-cyclodextrin]", "values": [{"measurement": "bioavailability", "setting": "in vivo", "value": 42, "unit": "%"}, {"measurement": "Body weight and motor behaviour assessment together (rescuing efficacy)", "setting": "Npc1^nih mice", "value": "rescuing efficacy"}, {"measurement": "Survival", "setting": "Npc1^nih mice; control about 10-11 weeks", "value": "16-17 weeks"}, {"measurement": "Median survival", "setting": "nmf164 mice", "value": "175 to 185", "unit": "days"}]}]}
